Key:
NT (HdnoR-VP16) = NT (HdnoR-VP16) (Paenarthrobacter nicotinovorans, UniProt Q8GAF9); set-up: key to Response to inducer: T (transgene transcription): A, activation; DA, deactivation; DR, derepression; key to Response to inducer: TF (transcription factor): B, binding; D, dissociation; conditions: NICE-OFF; PNIC (ONIC-PhCMVmin); cited from earlier work
NS (HdnoR-KRAB) = system: NS (HdnoR-KRAB); set-up: key to Response to inducer: T (transgene transcription): A, activation; DA, deactivation; DR, derepression; key to Response to inducer: TF (transcription factor): B, binding; D, dissociation; conditions: NICE-ON; PNIC (PSV40-ONIC8); cited from earlier work
BIT (BirA-VP16) = BIT (BirA-VP16) (Escherichia coli, UniProt P06709); set-up: key to Response to inducer: T (transgene transcription): A, activation; DA, deactivation; DR, derepression; key to Response to inducer: TF (transcription factor): B, binding; D, dissociation; conditions: PBIT3 (OBirA3-PhCMVmin); cited from earlier work
Chain of BIT (BirA-VP16) (P06709 whole entry, added parts left off): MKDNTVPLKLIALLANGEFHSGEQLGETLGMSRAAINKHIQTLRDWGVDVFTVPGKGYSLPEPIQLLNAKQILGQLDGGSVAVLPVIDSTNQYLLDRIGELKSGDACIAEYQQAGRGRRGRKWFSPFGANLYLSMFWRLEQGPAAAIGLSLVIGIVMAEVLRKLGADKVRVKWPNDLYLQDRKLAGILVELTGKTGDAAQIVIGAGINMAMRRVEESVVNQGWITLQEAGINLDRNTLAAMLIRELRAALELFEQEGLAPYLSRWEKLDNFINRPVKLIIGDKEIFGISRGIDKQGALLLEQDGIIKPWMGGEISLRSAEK

ArgR-VP16 = system: ArgR-VP16; set-up: key to Response to inducer: T (transgene transcription): A, activation; DA, deactivation; DR, derepression; key to Response to inducer: TF (transcription factor): B, binding; D, dissociation; conditions: ART; PART (OARG-PhCMVmin); cited from earlier work
p65-TraR = system: p65-TraR; set-up: key to Response to inducer: T (transgene transcription): A, activation; DA, deactivation; DR, derepression; key to Response to inducer: TF (transcription factor): B, binding; D, dissociation; conditions: O7x(tra box)-PhCMVmin; cited from earlier work
cTA (CymR-VP16) = system: cTA (CymR-VP16); set-up: key to Response to inducer: T (transgene transcription): A, activation; DA, deactivation; DR, derepression; key to Response to inducer: TF (transcription factor): B, binding; D, dissociation; conditions: Cumate - activator; PCR5 (OCuO6-PhCMVmin); cited from earlier work
rcTA (rCymR-VP16) = system: rcTA (rCymR-VP16); set-up: key to Response to inducer: T (transgene transcription): A, activation; DA, deactivation; DR, derepression; key to Response to inducer: TF (transcription factor): B, binding; D, dissociation; conditions: Cumate - reverse activator; PCR5 (OCuO6-PhCMVmin); cited from earlier work
CymR = CymR (Pseudomonas putida, UniProt O33453); set-up: key to Response to inducer: T (transgene transcription): A, activation; DA, deactivation; DR, derepression; key to Response to inducer: TF (transcription factor): B, binding; D, dissociation; conditions: Cumate - repressor; PCuO (PCMV5-OCuO); cited from earlier work
Chain of CymR (O33453 whole entry): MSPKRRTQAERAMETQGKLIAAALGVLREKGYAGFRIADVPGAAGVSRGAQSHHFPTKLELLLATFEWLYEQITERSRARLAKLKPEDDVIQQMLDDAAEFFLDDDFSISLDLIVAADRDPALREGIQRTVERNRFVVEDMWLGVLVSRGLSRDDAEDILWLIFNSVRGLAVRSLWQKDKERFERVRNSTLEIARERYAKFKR

ET (E-VP16) = system: ET (E-VP16); set-up: key to Response to inducer: T (transgene transcription): A, activation; DA, deactivation; DR, derepression; key to Response to inducer: TF (transcription factor): B, binding; D, dissociation; conditions: E-OFF; PETR (OETR-PhCMVmin); cited from earlier work
E-KRAB = system: E-KRAB; set-up: key to Response to inducer: T (transgene transcription): A, activation; DA, deactivation; DR, derepression; key to Response to inducer: TF (transcription factor): B, binding; D, dissociation; conditions: E-ON; PETRON8 (PSV40-OETR8); cited from earlier work
SCAE-KRAB = system: SCAE-KRAB; set-up: key to Response to inducer: T (transgene transcription): A, activation; DA, deactivation; DR, derepression; key to Response to inducer: TF (transcription factor): B, binding; D, dissociation; conditions: QuoRexE-ON (NOT IF gate); OscbR-OETR8-PhCMVmin; cited from earlier work
tTAE-KRAB = system: tTAE-KRAB; set-up: key to Response to inducer: T (transgene transcription): A, activation; DA, deactivation; DR, derepression; key to Response to inducer: TF (transcription factor): B, binding; D, dissociation; conditions: TET-OFFE-ON (NOT IF gate); OtetO7-OETR8-PhCMVmin; cited from earlier work
tTAPIT3E-KRAB = system: tTAPIT3E-KRAB; set-up: key to Response to inducer: T (transgene transcription): A, activation; DA, deactivation; DR, derepression; key to Response to inducer: TF (transcription factor): B, binding; D, dissociation; conditions: TET-OFFPIP-ONE-ON; OtetO7-OPIR3-OETR8-PhCMVmin; cited from earlier work
REDOX (REX-VP16) = REDOX (REX-VP16) (Streptomyces coelicolor, UniProt Q9WX14); set-up: key to Response to inducer: T (transgene transcription): A, activation; DA, deactivation; DR, derepression; key to Response to inducer: TF (transcription factor): B, binding; D, dissociation; conditions: PROP (OROP-PhCMVmin); cited from earlier work
Chain of REDOX (REX-VP16) (Q9WX14 whole entry, added parts left off): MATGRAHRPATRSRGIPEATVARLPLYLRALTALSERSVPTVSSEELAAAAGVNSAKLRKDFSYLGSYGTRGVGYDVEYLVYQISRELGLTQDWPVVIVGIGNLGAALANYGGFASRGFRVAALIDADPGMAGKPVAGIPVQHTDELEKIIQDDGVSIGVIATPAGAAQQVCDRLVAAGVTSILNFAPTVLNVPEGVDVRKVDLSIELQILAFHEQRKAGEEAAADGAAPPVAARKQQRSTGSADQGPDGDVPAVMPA

TtgA1 (TtgR-VP16) = TtgA1 (TtgR-VP16) (Pseudomonas putida, UniProt Q9AIU0); set-up: key to Response to inducer: T (transgene transcription): A, activation; DA, deactivation; DR, derepression; key to Response to inducer: TF (transcription factor): B, binding; D, dissociation; conditions: PEACE; PTtgR1 (OTtgR-PhCMVmin); cited from earlier work
Chain of TtgA1 (TtgR-VP16) (Q9AIU0 whole entry, added parts left off): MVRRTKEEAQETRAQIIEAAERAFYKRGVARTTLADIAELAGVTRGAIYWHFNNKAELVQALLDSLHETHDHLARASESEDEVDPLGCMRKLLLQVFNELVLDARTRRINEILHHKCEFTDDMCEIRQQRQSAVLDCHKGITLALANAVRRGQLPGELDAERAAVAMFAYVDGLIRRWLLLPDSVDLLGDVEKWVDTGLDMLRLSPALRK

SCA (ScbR-VP16) = system: SCA (ScbR-VP16); set-up: key to Response to inducer: T (transgene transcription): A, activation; DA, deactivation; DR, derepression; key to Response to inducer: TF (transcription factor): B, binding; D, dissociation; conditions: QuoRex; PSCA (OscbR-PhCMVmin)PSPA (OpapRI-PhCMVmin); cited from earlier work
SCS (ScbR-KRAB) = system: SCS (ScbR-KRAB); set-up: key to Response to inducer: T (transgene transcription): A, activation; DA, deactivation; DR, derepression; key to Response to inducer: TF (transcription factor): B, binding; D, dissociation; conditions: Q-ON; PSCAON8 (PSV40-OscbR8); cited from earlier work
SCAPIT3 = system: SCAPIT3; set-up: key to Response to inducer: T (transgene transcription): A, activation; DA, deactivation; DR, derepression; key to Response to inducer: TF (transcription factor): B, binding; D, dissociation; conditions: QuoRexPIP-ON (NOT IF gate); OscbR8-OPIR3-PhCMVmin; cited from earlier work
mUTS (KRAB-HucR) = system: mUTS (KRAB-HucR); set-up: key to Response to inducer: T (transgene transcription): A, activation; DA, deactivation; DR, derepression; key to Response to inducer: TF (transcription factor): B, binding; D, dissociation; conditions: UREX; PUREX8 (PSV40-OhucO8); cited from earlier work
VanA1 (VanR-VP16) = system: VanA1 (VanR-VP16); set-up: key to Response to inducer: T (transgene transcription): A, activation; DA, deactivation; DR, derepression; key to Response to inducer: TF (transcription factor): B, binding; D, dissociation; conditions: VAC-OFF; P1VanO2 (OVanO2-PhCMVmin); cited from earlier work
VanA4 (VanR-KRAB) = system: VanA4 (VanR-KRAB); set-up: key to Response to inducer: T (transgene transcription): A, activation; DA, deactivation; DR, derepression; key to Response to inducer: TF (transcription factor): B, binding; D, dissociation; conditions: VAC-ON; PVanON8 (PhCMV-OVanO8); cited from earlier work
[1] = system: nicotine-inducible transcription factor; conditions: U87MG reporter cells co-transduced with constructs 12 and 13 (cell group G); nicotine 10 uM and 1 uM; flow cytometry day 5; FIG. 2 and FIG. 3
Protocol: U87MG cells transduced with a 4×ZF10-1 BS_minYBTATA:mCherry vector (referred to as “reporter cells”) were plated at 6e5/cells in a 6 well plate on day 0.
Cannabinoid-inducible transcription factor constructs included a first monomer construct (construct 14) composed of a first anti-CBD VHH (CA-14), a zinc finger protein domain of SEQ ID NO: 1, a nuclear localization signal of SEQ ID NO: 2, a cleavable linker, and a BFP tag, and a second monomer construct (construct 15) composed of a 3×FLAG-tagged nuclear localization signal (NLS) of SEQ ID NO: 2, a VPR transcriptional activation domain, a second anti-CBD VHH that is oligomerizable with the first anti-CBD VHH (DB-21), a cleavable linker, and a GFP tag.
Day 5, flow cytometry was performed, and the cells were gate on GFP/BFP

PIT (PIP-VP16) = system: PIT (PIP-VP16); set-up: key to Response to inducer: T (transgene transcription): A, activation; DA, deactivation; DR, derepression; key to Response to inducer: TF (transcription factor): B, binding; D, dissociation; conditions: PIP-OFF; PPIR (OPIR-Phsp70 min); cited from earlier work
PIT3 (PIP-KRAB) = system: PIT3 (PIP-KRAB); set-up: key to Response to inducer: T (transgene transcription): A, activation; DA, deactivation; DR, derepression; key to Response to inducer: TF (transcription factor): B, binding; D, dissociation; conditions: PIP-ON; PPIRON (PSV40-OPIR3); cited from earlier work

Chain of NT (HdnoR-VP16) (Q8GAF9 whole entry, added parts left off): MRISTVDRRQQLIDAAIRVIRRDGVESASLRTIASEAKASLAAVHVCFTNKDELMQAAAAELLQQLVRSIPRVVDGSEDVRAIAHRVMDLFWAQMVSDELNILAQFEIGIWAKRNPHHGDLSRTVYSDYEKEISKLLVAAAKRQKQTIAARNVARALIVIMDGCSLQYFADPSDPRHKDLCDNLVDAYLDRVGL

Molecule: CN1CCCC1c1ccc(O)nc1 (centres unmarked) [6-Hydroxy-nicotine]
- Response to inducer: T (transgene transcription) (NT (HdnoR-VP16)): DA
- Response to inducer: TF (transcription factor) (NT (HdnoR-VP16)): D
- Response to inducer: T (transgene transcription) (NS (HdnoR-KRAB)): DR
- Response to inducer: TF (transcription factor) (NS (HdnoR-KRAB)): D

Molecule: O=C(O)CCCC[C@@H]1SC[C@@H]2NC(=O)N[C@@H]21 [Biotin]
- Response to inducer: T (transgene transcription) (BIT (BirA-VP16)): A
- Response to inducer: TF (transcription factor) (BIT (BirA-VP16)): B

Molecule: N=C(N)NCCC[C@H](N)C(=O)O [Construct 1-Arginine, 1-Arginine]
- Response to inducer: T (transgene transcription) (ArgR-VP16): A
- Response to inducer: TF (transcription factor) (ArgR-VP16): B

Molecule: CCCCCC(=O)CC(=O)N[C@H]1CCOC1=O [Construct 3-Oxo-C8-HSL, 3-Oxo-C8-HSL]
- Response to inducer: T (transgene transcription) (p65-TraR): A
- Response to inducer: TF (transcription factor) (p65-TraR): B

Molecule: CC(C)c1ccc(C(=O)O)cc1 [Cumate]
- Response to inducer: T (transgene transcription) (cTA (CymR-VP16)): DA
- Response to inducer: TF (transcription factor) (cTA (CymR-VP16)): D
- Response to inducer: T (transgene transcription) (rcTA (rCymR-VP16)): A
- Response to inducer: TF (transcription factor) (rcTA (rCymR-VP16)): B
- Response to inducer: T (transgene transcription) (CymR): DR
- Response to inducer: TF (transcription factor) (CymR): D

Molecule: CC[C@H]1OC(=O)[C@H](C)[C@@H](O[C@H]2C[C@@](C)(OC)[C@@H](O)[C@H](C)O2)[C@H](C)[C@@H](O[C@@H]2O[C@H](C)C[C@H](N(C)C)[C@H]2O)[C@](C)(O)C[C@@H](C)C(=O)[C@H](C)[C@@H](O)[C@]1(C)O [Erythromycin]
- Response to inducer: T (transgene transcription) (ET (E-VP16)): DA
- Response to inducer: TF (transcription factor) (ET (E-VP16)): D
- Response to inducer: T (transgene transcription) (E-KRAB): DR
- Response to inducer: TF (transcription factor) (E-KRAB): D
- Response to inducer: T (transgene transcription) (SCAE-KRAB): DR
- Response to inducer: TF (transcription factor) (SCAE-KRAB): D
- Response to inducer: T (transgene transcription) (tTAE-KRAB): DR
- Response to inducer: TF (transcription factor) (tTAE-KRAB): D
- Response to inducer: T (transgene transcription) (tTAPIT3E-KRAB): DR
- Response to inducer: TF (transcription factor) (tTAPIT3E-KRAB): D

Molecule: NC(=O)C1=CN([C@@H]2O[C@H](COP(=O)(O)OP(=O)(O)OC[C@H]3O[C@@H](n4cnc5c(N)ncnc54)[C@H](O)[C@@H]3O)[C@@H](O)[C@H]2O)C=CC1 [NADH]
- Response to inducer: T (transgene transcription) (REDOX (REX-VP16)): DA
- Response to inducer: TF (transcription factor) (REDOX (REX-VP16)): D

Molecule: O=C(CCc1ccc(O)cc1)c1c(O)cc(O)cc1O [Phloretin]
- Response to inducer: T (transgene transcription) (TtgA1 (TtgR-VP16)): DA
- Response to inducer: TF (transcription factor) (TtgA1 (TtgR-VP16)): D

Molecule: CC(C)CCCC[C@@H](O)[C@@H]1C(=O)OC[C@H]1CO [SCB1]
- Response to inducer: T (transgene transcription) (SCA (ScbR-VP16)): DA
- Response to inducer: TF (transcription factor) (SCA (ScbR-VP16)): D
- Response to inducer: T (transgene transcription) (SCS (ScbR-KRAB)): DR
- Response to inducer: TF (transcription factor) (SCS (ScbR-KRAB)): D
- Response to inducer: T (transgene transcription) (SCAPIT3): DA
- Response to inducer: TF (transcription factor) (SCAPIT3): D
- Response to inducer: T (transgene transcription) (SCAE-KRAB): DA
- Response to inducer: TF (transcription factor) (SCAE-KRAB): D

Molecule: O=c1[nH]c(=O)c2[nH]c(=O)[nH]c2[nH]1 [Uric acid]
- Response to inducer: T (transgene transcription) (mUTS (KRAB-HucR)): DR
- Response to inducer: TF (transcription factor) (mUTS (KRAB-HucR)): D

Molecule: COc1cc(C(=O)O)ccc1O [Vanillic acid]
- Response to inducer: T (transgene transcription) (VanA1 (VanR-VP16)): DA
- Response to inducer: TF (transcription factor) (VanA1 (VanR-VP16)): D
- Response to inducer: T (transgene transcription) (VanA4 (VanR-KRAB)): DR
- Response to inducer: TF (transcription factor) (VanA4 (VanR-KRAB)): D

Molecule: CN1CCCC1c1cccnc1 (centres unmarked) [nicotine]
- reporter (mCherry) expression: percent of mCherry positive cells and mean fluorescent intensity [1]: induced concentration-dependent reporter expression

Molecule: Pristinamycin I
- Response to inducer: T (transgene transcription) (PIT (PIP-VP16)): DA
- Response to inducer: TF (transcription factor) (PIT (PIP-VP16)): D
- Response to inducer: T (transgene transcription) (PIT3 (PIP-KRAB)): DR
- Response to inducer: TF (transcription factor) (PIT3 (PIP-KRAB)): D
- Response to inducer: T (transgene transcription) (SCAPIT3): DR
- Response to inducer: TF (transcription factor) (SCAPIT3): D
- Response to inducer: T (transgene transcription) (tTAPIT3E-KRAB): DR
- Response to inducer: TF (transcription factor) (tTAPIT3E-KRAB): D

From patent publication US20240182910A1, “DRUG-REGULATABLE TRANSCRIPTION FACTORS” (Senti Biosciences, Inc., priority 2021, published 2024)
